Assay results taken from US5073539A, “Transdermal administration of zwitterionic drugs” (Ciba-Geigy Corporation, priority 1990, dated 1991).
Converted amounts (≈) assume the structure as drawn.

Key:
[1] = Solubility in ethanol at 25 deg. C.; format: physicochemical; settings: average of triplicate
[2] = Solubility in chloroform at 25 deg. C. (model of skin lipids); format: physicochemical; settings: at 25 deg. C.; average of triplicate
Description: (§1) In the examples, the solubilities of free zwitterion and enhanced solubilities of various salts thereof are reported in various degrees in the following solvents: water, ethanol, octanol, chloroform and human stratum corneum. Permeation rates are also shown for these zwitterionic compounds and enhanced fluxes of the salts thereof through materials including polyurethane. While such materials are impractical for transdermal devices for free zwitterions, these materials are practical for the transdermal delivery of salts of zwitterions. The solubility in water is given as a model of polar solvents, while the octanol and chloroform are given as models for skin lipids. The critical factor for inclusion of a salt within the invention is that relative to its non salt zwitterion parent compound, the salt form of the invention has a greater solubility in both polar and lipid skin models.
(§2) Average of values measured in triplicate.

[3] = Permeation rate through human epidermis; format: in vitro ADME
Description: as §1, §2

[4] = Permeation rate through polyurethane; format: physicochemical
Description: as §1, §2

[5] = Solubility in water at 25 deg. C.; format: physicochemical; settings: average of triplicate
Description: (§3) The solubility in water is given as a model of polar solvents, while the octanol and chloroform are given as models for skin lipids.

[6] = Solubility in octanol at 25 deg. C. (model of skin lipids); format: physicochemical; settings: average of triplicate
Description: as §3

[7] = Solubility in human stratum corneum; format: physicochemical; settings: average of triplicate
Description: as §1, §2

Structure (SMILES): NCC(CC(=O)O)c1ccc(Cl)cc1 (stereo not drawn) [Baclofen (Bac), Baclofen, reference compound]
- Solubility in ethanol [1]: 1144.1 µg/mL (≈ 5350 µM)
- Solubility in chloroform [2]: 0.22 µg/mL (≈ 1.03 µM)
- Permeation rate through human epidermis ([3]; average of triplicate): 0.118 ug/cm 2/hr
- R.E. (relative enhancement) of permeation rate through human epidermis ([3]; relative to free zwitterion): 1.00
- Permeation rate through polyurethane ([4]; average of triplicate): 5.32 ug/cm 2/hr
- R.E. (relative enhancement) of permeation rate through polyurethane ([4]; relative to free zwitterion): 1.00
- Solubility in water [5]: 6828.7 µg/mL (≈ 32000 µM)
- Solubility in octanol [6]: 22.2 µg/mL (≈ 104 µM)
- Solubility in human stratum corneum [7]: 3.11 µg/mL (≈ 14.6 µM)
